The target of this assay is T1, human CTPS1 (Homo sapiens, UniProt P17812).
T1 construct: purchased Proteros biostructures GmbH
T1 sequence (P17812 1-591): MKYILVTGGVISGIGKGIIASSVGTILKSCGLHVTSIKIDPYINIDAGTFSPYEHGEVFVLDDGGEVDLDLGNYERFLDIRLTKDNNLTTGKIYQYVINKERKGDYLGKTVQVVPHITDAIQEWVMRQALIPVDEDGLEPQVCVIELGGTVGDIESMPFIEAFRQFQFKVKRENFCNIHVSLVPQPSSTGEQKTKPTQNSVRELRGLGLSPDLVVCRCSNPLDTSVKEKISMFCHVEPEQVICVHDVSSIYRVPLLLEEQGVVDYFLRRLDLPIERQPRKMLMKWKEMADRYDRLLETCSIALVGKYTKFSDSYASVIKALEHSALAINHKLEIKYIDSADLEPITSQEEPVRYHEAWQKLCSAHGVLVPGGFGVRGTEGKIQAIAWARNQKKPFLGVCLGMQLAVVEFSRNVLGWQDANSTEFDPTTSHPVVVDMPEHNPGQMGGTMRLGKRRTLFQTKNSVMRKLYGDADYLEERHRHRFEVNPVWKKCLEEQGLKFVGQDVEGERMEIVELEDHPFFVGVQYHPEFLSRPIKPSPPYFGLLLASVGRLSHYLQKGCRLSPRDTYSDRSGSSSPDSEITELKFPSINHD
Briefly: Human CTPS1 enzyme inhibition (ADP-Glo Max assay). Format: biochemical. To be noted: Table 23; ADP-Glo Max assay; read-out: CTPS1 (Human CTPS1 Enzyme Inhibition data grouped by potency range, IC50). Here is the method:
Biological Example 1—Human CTPS1 Enzyme Inhibition
The enzyme inhibitory activities of compounds invented against the target of interest were determined using the ADP-Glo™ Max assay (Promega, UK). Assays for human CTPS1 were performed in 1× assay buffer containing 50 mM Tris, 10 mM MgCl2, 0.01% Tween-20, pH to 8.0 accordingly. Finally, immediately before use, L-cysteine was added to the 1× assay buffer to a final concentration of 2 mM. All reagents are from Sigma-Aldrich unless specified otherwise. Human full length active C-terminal FLAG-Hiss-tag CTPS1 (UniProtKB-P17812, CTPS[1-591]-[…]) was obtained from Proteros biostructures GmbH.
3× human CTPS1 protein was prepared in 1× assay buffer to the final working protein concentration required for the reaction. A 2 uL volume per well of 3× human CTPS1 protein was mixed with 2 uL per well of 3× test compound (compound prepared in 1× assay buffer to an appropriate final 3× compound concentration respective to the concentration response curve designed for the compounds under test) for 10 minutes at 25° C. The enzymatic reaction was then initiated by addition of a 2 uL per well volume of a pre-mixed substrate mix (UltraPure ATP from ADP-Glo™ Max kit (0.31 mM), GTP (0.034 mM), UTP (0.48 mM) and L-glutamine (0.186 mM)) and the mixture was incubated for an appropriate amount of time within the determined linear phase of the reaction at 25° C. under sealed plate conditions with constant agitation at 500 revolutions per minute (rpm). ADP-Glo™ Max reagent was added for 60 minutes (6 μL per well) and subsequently ADP-Glo™ Max development reagent was added for 60 minutes (12 uL per well) prior to signal detection in a microplate reader (EnVision® Multilabel Reader, Perkin Elmer). Following each reagent addition over the course of the assay, assay plates were pulse centrifuged for 30 seconds at 500 rpm.
In all cases, the enzyme converts ATP to ADP and the ADP-Glo™ Max reagent subsequently depletes any remaining endogenous ATP in the reaction system. The ADP-Glo™ Max detection reagent converts the ADP that has been enzymatically produced back into ATP and using ATP as a substrate together with luciferin for the enzyme luciferase, light is generated which produces a detectable luminescence. […] The percentage inhibition produced by each concentration of compound was calculated using the equation shown below: […]
Percentage inhibition was then plotted against compound concentration, and the 50% inhibitory concentration (IC50) was determined from the resultant concentration-response curve.
For `CCOc1cncc(-c2ccc(NC(=O)C(C)(C)c3ccnc(NS(=O)(=O)C4CC4)n3)cc2)c1` [Example P57], the IC50 is 100 to 1000 nM. As for `CC(C)Oc1cncc(-c2ccc(NC(=O)C(C)(C)c3ccnc(NS(=O)(=O)C4CC4)n3)cc2)c1` [Example P58], the IC50 lay in the range of 100 to 1000 nM. Consider `CC(C)(C(=O)Nc1ccc(-c2cccc(C(F)(F)F)c2)cc1)c1ccnc(NS(=O)(=O)C2CC2)n1` [Example P60], for which the IC50 was in the range of 1000 to 10000 nM.

On to `CC(C)(C(=O)Nc1ccc(-c2cccc(Cl)c2)cc1)c1ccnc(NS(=O)(=O)C2CC2)n1` [Example P61], for which the IC50 lay in the range of 1000 to 10000 nM. To `CC(C)(C(=O)Nc1ccc(-c2cccc(C#N)c2)cc1)c1ccnc(NS(=O)(=O)C2CC2)n1` [Example P62] belongs 1000 to 10000 nM; to `CCOc1cccc(-c2ccc(NC(=O)C(C)(C)c3ccnc(NS(=O)(=O)C4CC4)n3)cc2)c1` [Example P63], 10000 to 20000 nM.

With `CC(C)(C(=O)Nc1ccc(-c2cncc(C(F)(F)F)n2)cc1)c1ccnc(NS(=O)(=O)C2CC2)n1` [Example P64], the half-maximal inhibitory concentration (IC50) is ≤ 100 nM. The figure for `CCOc1cncc(-c2ccc(NC(=O)C(C)(C)c3ccnc(NS(=O)(=O)C4CC4)n3)cc2)n1` [Example P65] is ≤ 100 nM. To `CC(C)(C(=O)Nc1ccc(-c2cncc(OC3CC3)n2)cc1)c1ccnc(NS(=O)(=O)C2CC2)n1` [Example P66] belongs 100 to 1000 nM; to `CC(C)Oc1cncc(-c2ccc(NC(=O)C(C)(C)c3ccnc(NS(=O)(=O)C4CC4)n3)cc2)n1` [Example P67], ≤ 100 nM. As to `CCOc1cncc(-c2ccc(NC(=O)C(C)(C)c3ccnc(NS(=O)(=O)C4(C)CC4)n3)cc2)n1` [Example P69], the IC50 was in the range of 100 to 1000 nM. To `CC(C)(C(=O)Nc1ccc(-c2cnccn2)cc1)c1ccnc(NS(=O)(=O)C2CC2)n1` [Example P71] belongs 1000 to 10000 nM. As to `CCOc1cncc(-c2ccc(NC(=O)C(C)(C)c3ccnc(NS(=O)(=O)CC)n3)c(F)c2)n1` [Example P72], the IC50 was in the range of 100 to 1000 nM.

With `CCS(=O)(=O)Nc1nccc(C(C)(C)C(=O)Nc2ccc(-c3cncc(C(F)(F)F)n3)cc2)n1` [Example P73], the IC50 is 100 to 1000 nM. Consider `CCOc1cncc(-c2cnc(NC(=O)C(C)(C)c3ccnc(NS(C)(=O)=O)n3)c(F)c2)n1` [Example P75], for which the concentration for half-maximal inhibition (IC50) was 100 to 1000 nM. The figure for `CC(C)Oc1cncc(-c2ccc(NC(=O)C(C)(C)c3ccnc(NS(C)(=O)=O)n3)c(F)c2)c1` [Example P77] is 1000 to 10000 nM; for `CC(C)Oc1cncc(-c2ccc(NC(=O)C(C)(C)c3ccnc(NS(C)(=O)=O)n3)c(F)c2)n1` [Example P78] it is 100 to 1000 nM; for `Cc1cc(-c2cncc(C(F)(F)F)n2)ccc1NC(=O)C(C)(C)c1ccnc(NS(C)(=O)=O)n1` [Example P79] it is 100 to 1000 nM. The figure for `CC(C)(C(=O)Nc1ccc(-c2cncc(C(F)(F)F)n2)cc1)c1ccnc(NS(C)(=O)=O)n1` [Example P80] is 100 to 1000 nM; for `CCOc1cncc(-c2ccc(NC(=O)C(C)(C)c3ccnc(NS(C)(=O)=O)n3)cc2)n1` [Example P81] it is ≤ 100 nM; for `CCOc1cncc(-c2ccc(NC(=O)C(C)(C)c3ccnc(NS(=O)(=O)C(C)(C)C)n3)cc2)n1` [Example P82] it is 1000 to 10000 nM. To `CC(C)c1cncc(-c2ccc(NC(=O)C(C)(C)c3ccnc(NS(=O)(=O)C4CC4)n3)nc2)n1` [Example P116, 2-(2-(Cyclopropanesulfonamido)pyrimidin-4-yl)-N-(5-(6-isopropylpyrazin-2-yl)pyridin-2-yl)-2-methylpropanamide] belongs 100 to 1000 nM; to `CCOc1cncc(-c2ccc(NC(=O)C(F)(F)c3ccnc(NS(=O)(=O)C4CC4)n3)c(F)c2)n1` [Example P117], ≤ 100 nM; to `C=C(C)c1cncc(-c2ccc(NC(=O)C(C)(C)c3ccnc(NS(=O)(=O)C4CC4)n3)nc2)n1` [Example P122, 2-(2-(cyclopropanesulfonamido)pyrimidin-4-yl)-2-methyl-N-(5-(6-(prop-1-en-2-yl)pyrazin-2-yl)pyridin-2-yl)propanamide], 100 to 1000 nM. As for `CCOc1cncc(-c2ccc(NC(=O)C(C)(C)c3cc(C)nc(NS(=O)(=O)C4CC4)n3)nc2)n1` [Example P123], the IC50 lay within 100 to 1000 nM. As for `CCOc1cncc(-c2ccc(NC(=O)C(C)(C)c3cc(C(F)(F)F)nc(NS(=O)(=O)C4CC4)n3)nc2)n1` [Example P124], the IC50 fell in the range of 100 to 1000 nM. `CCOc1cncc(-c2ccc(NC(=O)C(C)(C)c3ccnc(NS(=O)(=O)C4CC4)n3)cn2)n1` [Example P126]: the IC50 was ≤ 100 nM. Turning to `CCOc1cncc(-c2ccc(NC(=O)C(C)(C)c3cc(C)nc(NS(=O)(=O)C4CC4)n3)c(F)c2)n1` [Example P129], the IC50 was in the range of 100 to 1000 nM. The figure for `CCOc1cncc(-c2ccc(NC(=O)C(C)(C)c3cc(C(F)(F)F)nc(NS(=O)(=O)C4CC4)n3)c(F)c2)n1` [Example P130] is 100 to 1000 nM; for `C=C(C)c1cncc(-c2ccc(NC(=O)C(C)(C)c3ccnc(NS(=O)(=O)C4CC4)n3)cc2)n1` [Example P131] it is 100 to 1000 nM; for `CN(C)c1cncc(-c2ccc(NC(=O)C(C)(C)c3ccnc(NS(=O)(=O)C4CC4)n3)cc2)n1` [Example P133] it is 1000 to 10000 nM.

For the compound `CCOc1cncc(-c2ccc(NC(=O)C(C)(C)c3cc(C)nc(NS(=O)(=O)C4CC4)n3)cc2)n1` [Example P134], the IC50 is 100 to 1000 nM. `CCOc1cncc(-c2ccc(NC(=O)C(C)(C)c3cc(C(F)(F)F)nc(NS(=O)(=O)C4CC4)n3)cc2)n1` [Example P135]: the IC50 lay in the range of 100 to 1000 nM. To `CCOc1cncc(-c2ccc(NC(=O)C3(c4ccnc(NS(=O)(=O)C5CC5)n4)CCOCC3)cc2)n1` [Example P137] belongs ≤ 100 nM; to `CCOc1cncc(-c2ccc(NC(=O)C3(c4ccnc(NS(C)(=O)=O)n4)CCNCC3)nc2)n1` [Example P138], 100 to 1000 nM. In the case of `CCOc1cncc(-c2ccc(NC(=O)C3(c4ccnc(NS(=O)(=O)C5CC5)n4)CCN(C(=O)OC(C)(C)C)CC3)nc2)n1` [Example P139], the IC50 lay in the range of 100 to 1000 nM.

Take `CCOc1cncc(-c2ccc(NC(=O)C3(c4ccnc(NS(=O)(=O)C5CC5)n4)CCNCC3)nc2)n1` [Example P140]: the IC50 was 100 to 1000 nM.

Take `CCOc1cncc(-c2ccc(NC(=O)C3(c4ccnc(NS(=O)(=O)C5CC5)n4)CN(C(=O)OC(C)(C)C)C3)nc2)n1` [Example P141]: the IC50 lay within 100 to 1000 nM. Regarding `CCOc1cncc(-c2ccc(NC(=O)C3(c4ccnc(NS(C)(=O)=O)n4)CCN(C(=O)OC(C)(C)C)CC3)nc2)n1` [Example P142], the IC50 fell in the range of 100 to 1000 nM. The figure for `CCOc1cncc(-c2cnc(NC(=O)C(CCOC)c3ccnc(NS(=O)(=O)C4CC4)n3)c(F)c2)n1` (centres unmarked) [Example P144] is ≤ 100 nM; for `CCOc1cncc(-c2ccc(NC(=O)C(C)(CCOC)c3ccnc(NS(C)(=O)=O)n3)nc2)n1` (centres unmarked) [Example P147] it is 100 to 1000 nM; for `CCC(C(=O)Nc1ccc(-c2cncc(Cl)c2)cn1)c1ccnc(NS(=O)(=O)C2CC2)n1` (centres unmarked) [Example P148] it is ≤ 100 nM. To `CCC(F)(C(=O)Nc1ccc(-c2cncc(Cl)c2)cn1)c1ccnc(NS(=O)(=O)C2CC2)n1` (centres unmarked) [Example P149] belongs ≤ 100 nM; to `CCC(F)(C(=O)Nc1ccc(-c2cncc(C3CC3)n2)cn1)c1ccnc(NS(=O)(=O)C2CC2)n1` (centres unmarked) [Example P150], ≤ 100 nM.

For the origin of these results see US20230002352A1, “SULFONAMIDE DERIVATIVES AS CTPS1 INHIBITORS” (Step Pharma S.A.S., priority 2019, published 2023).
